From ChEMBL document CHEMBL1201862, “PubChem BioAssay data set” (2004)
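Following 48 hours of exposure in 96-well plates, responses at five concentrations were used to interpolate endpoints linearly. GI50: concentration for 50% inhibition of growth.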 Active and inactive are the calls of the source. No stated cut-off is given here; in the data, active = GI50 up to about 1.1 µM and inactive = higher.

Tests used:
Assay in all cases: inhibition of tumour cell growth, NCI panel, 48 h
DLD-1 = test system: DLD-1
DMS-273 = test system: DMS-273
HOP-18 = test system: HOP-18
KM-20L2 = test system: KM-20L2
LXFL 529 = test system: LXFL 529
SNB-78 = test system: SNB-78
M19-MEL = test system: M19-MEL
RXF 631 = test system: RXF 631
XF498 = test system: XF498

N#CC(NNC(=O)c1ccccc1O)c1cccc(O)c1 (configuration not stated)
GI50 (DLD-1): 4.54 µM (inactive)
GI50 (DMS-273): 2.32 µM (inactive)
GI50 (HOP-18): 35.3 µM (inactive)
GI50 (KM-20L2): 33.7 µM (inactive)
GI50 (LXFL 529): 4.31 µM (inactive)
GI50 (SNB-78): 4.89 µM (inactive)

CS(=O)(=O)ON1C(=O)c2ccc(N)cc2C1=O
GI50 (DLD-1): > 65.8 µM (inactive)
GI50 (DMS-273): > 100 µM (inactive)
GI50 (HOP-18): > 100 µM (inactive)
GI50 (KM-20L2): > 100 µM (inactive)
GI50 (LXFL 529): > 78.5 µM (inactive)
GI50 (M19-MEL): > 59.8 µM (inactive)
GI50 (RXF 631): > 100 µM (inactive)
GI50 (SNB-78): > 100 µM (inactive)
GI50 (XF498): > 79.1 µM (inactive)

CCN(CC)CC1c2ccccc2C(CNc2ccccc2)N1C (configuration not stated)
GI50 (DLD-1): 70.8 µM (inactive)
GI50 (DMS-273): > 100 µM (inactive)
GI50 (KM-20L2): > 100 µM (inactive)
GI50 (LXFL 529): > 100 µM (inactive)
GI50 (M19-MEL): > 100 µM (inactive)
GI50 (RXF 631): > 100 µM (inactive)
GI50 (SNB-78): > 100 µM (inactive)
GI50 (XF498): > 100 µM (inactive)

COc1cc2nncc(Sc3cnnc4ccccc34)c2cc1OC
GI50 (DLD-1): 19.6 µM (inactive)
GI50 (DMS-273): 29.7 µM (inactive)
GI50 (HOP-18): 16.5 µM (inactive)
GI50 (KM-20L2): 25.6 µM (inactive)
GI50 (LXFL 529): 9.79 µM (inactive)
GI50 (M19-MEL): 30.7 µM (inactive)
GI50 (RXF 631): 23 µM (inactive)
GI50 (SNB-78): 6 µM (inactive)

COCN1C(=O)C2CC(/C=C/C(N)=O)=CN2C(=O)c2ccccc21 (configuration not stated)
GI50 (DLD-1): > 100 µM (inactive)
GI50 (DMS-273): > 100 µM (inactive)
GI50 (HOP-18): > 100 µM (inactive)
GI50 (KM-20L2): > 100 µM (inactive)
GI50 (LXFL 529): > 100 µM (inactive)
GI50 (M19-MEL): > 100 µM (inactive)
GI50 (SNB-78): > 100 µM (inactive)
GI50 (XF498): > 100 µM (inactive)

COc1cc(CC2C(=O)OCC2[C@@H](OC(C)=O)c2ccc3c(c2)OCO3)c(Br)c(OC)c1OC (some centres not stated)
GI50 (DLD-1): > 100 µM (inactive)
GI50 (DMS-273): 30.7 µM (inactive)
GI50 (HOP-18): > 100 µM (inactive)
GI50 (KM-20L2): 44 µM (inactive)
GI50 (LXFL 529): 33.9 µM (inactive)
GI50 (M19-MEL): 37.8 µM (inactive)
GI50 (XF498): 62.8 µM (inactive)

CC1=NN(C(=O)c2ccc(Cl)cc2)C(=O)/C1=C/c1cccc(O)c1
GI50 (DLD-1): > 100 µM (inactive)
GI50 (KM-20L2): > 100 µM (inactive)
GI50 (LXFL 529): > 100 µM (inactive)
GI50 (M19-MEL): > 100 µM (inactive)
GI50 (SNB-78): > 100 µM (inactive)

C/C(=N\[N+](C)(C)C)C(c1ccccc1)C1(c2ccccc2)C(c2ccccc2)=C1c1ccccc1 (configuration not stated)
GI50 (DLD-1): > 100 µM (inactive)
GI50 (DMS-273): > 100 µM (inactive)
GI50 (KM-20L2): > 100 µM (inactive)
GI50 (M19-MEL): > 100 µM (inactive)
GI50 (SNB-78): 50.5 µM (inactive)
GI50 (XF498): 22.6 µM (inactive)

CN(CCO)c1nc(=O)c2c(n1C1OC(CO)C(O)C(O)C1O)CCCC2 (configuration not stated)
GI50 (DLD-1): > 100 µM (inactive)
GI50 (DMS-273): > 100 µM (inactive)
GI50 (HOP-18): > 100 µM (inactive)
GI50 (KM-20L2): > 100 µM (inactive)
GI50 (LXFL 529): > 100 µM (inactive)
GI50 (M19-MEL): > 100 µM (inactive)
GI50 (SNB-78): > 100 µM (inactive)
GI50 (XF498): > 100 µM (inactive)

c1ccc2c3c([nH]c2c1)[C@H]1C2CCCCN2CN1CC3 (some centres not stated)
GI50 (DLD-1): > 100 µM (inactive)
GI50 (DMS-273): > 100 µM (inactive)
GI50 (HOP-18): > 100 µM (inactive)
GI50 (KM-20L2): > 100 µM (inactive)
GI50 (LXFL 529): > 100 µM (inactive)
GI50 (M19-MEL): > 100 µM (inactive)
GI50 (RXF 631): > 100 µM (inactive)
GI50 (SNB-78): 94.4 µM (inactive)
GI50 (XF498): > 100 µM (inactive)

COc1ccc(-c2cc(C(=O)Nc3ccc(C)c(C)c3)nc(NC#N)n2)cc1
GI50 (DLD-1): > 100 µM (inactive)
GI50 (DMS-273): > 100 µM (inactive)
GI50 (HOP-18): 0.562 µM (active)
GI50 (KM-20L2): > 100 µM (inactive)
GI50 (LXFL 529): > 100 µM (inactive)
GI50 (M19-MEL): > 100 µM (inactive)
GI50 (SNB-78): > 100 µM (inactive)
GI50 (XF498): > 100 µM (inactive)
